This passage reports IC50 results from patent US10150728B2, “Alkylene derivatives” (Shionogi & Co., Ltd., priority 2013, dated 2018).

The structures appear in SMILES notation.

This experiment has as its target recombinant human ACC2 (Homo sapiens (Human), UniProt O00763). The experiment is described as follows: Measurement of inhibitory activity on human ACC2 (MALDI-TOF MS, acetyl CoA to malonyl CoA conversion). Format: biochemical. The settings on record: Tables 155-159. In a few lines:
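His-tagged human ACC2 (residues 27–2458) from baculovirus-infected Sf-9 cells was preincubated 1 h in pH 7.4 HEPES-KOH buffer with MgCl2, 6-10 mM potassium citrate, glutathione and BSA. Substrate solution held 1 mM ATP, 0.8 mM acetyl CoA and 25-50 mM bicarbonate. After 1–3 h at room temperature, malonyl CoA/(malonyl+acetyl CoA) was read by negative-mode MALDI-TOF MS; citrate, bicarbonate and time varied by enzyme lot.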

Sequence of recombinant human ACC2 (O00763 27-2458): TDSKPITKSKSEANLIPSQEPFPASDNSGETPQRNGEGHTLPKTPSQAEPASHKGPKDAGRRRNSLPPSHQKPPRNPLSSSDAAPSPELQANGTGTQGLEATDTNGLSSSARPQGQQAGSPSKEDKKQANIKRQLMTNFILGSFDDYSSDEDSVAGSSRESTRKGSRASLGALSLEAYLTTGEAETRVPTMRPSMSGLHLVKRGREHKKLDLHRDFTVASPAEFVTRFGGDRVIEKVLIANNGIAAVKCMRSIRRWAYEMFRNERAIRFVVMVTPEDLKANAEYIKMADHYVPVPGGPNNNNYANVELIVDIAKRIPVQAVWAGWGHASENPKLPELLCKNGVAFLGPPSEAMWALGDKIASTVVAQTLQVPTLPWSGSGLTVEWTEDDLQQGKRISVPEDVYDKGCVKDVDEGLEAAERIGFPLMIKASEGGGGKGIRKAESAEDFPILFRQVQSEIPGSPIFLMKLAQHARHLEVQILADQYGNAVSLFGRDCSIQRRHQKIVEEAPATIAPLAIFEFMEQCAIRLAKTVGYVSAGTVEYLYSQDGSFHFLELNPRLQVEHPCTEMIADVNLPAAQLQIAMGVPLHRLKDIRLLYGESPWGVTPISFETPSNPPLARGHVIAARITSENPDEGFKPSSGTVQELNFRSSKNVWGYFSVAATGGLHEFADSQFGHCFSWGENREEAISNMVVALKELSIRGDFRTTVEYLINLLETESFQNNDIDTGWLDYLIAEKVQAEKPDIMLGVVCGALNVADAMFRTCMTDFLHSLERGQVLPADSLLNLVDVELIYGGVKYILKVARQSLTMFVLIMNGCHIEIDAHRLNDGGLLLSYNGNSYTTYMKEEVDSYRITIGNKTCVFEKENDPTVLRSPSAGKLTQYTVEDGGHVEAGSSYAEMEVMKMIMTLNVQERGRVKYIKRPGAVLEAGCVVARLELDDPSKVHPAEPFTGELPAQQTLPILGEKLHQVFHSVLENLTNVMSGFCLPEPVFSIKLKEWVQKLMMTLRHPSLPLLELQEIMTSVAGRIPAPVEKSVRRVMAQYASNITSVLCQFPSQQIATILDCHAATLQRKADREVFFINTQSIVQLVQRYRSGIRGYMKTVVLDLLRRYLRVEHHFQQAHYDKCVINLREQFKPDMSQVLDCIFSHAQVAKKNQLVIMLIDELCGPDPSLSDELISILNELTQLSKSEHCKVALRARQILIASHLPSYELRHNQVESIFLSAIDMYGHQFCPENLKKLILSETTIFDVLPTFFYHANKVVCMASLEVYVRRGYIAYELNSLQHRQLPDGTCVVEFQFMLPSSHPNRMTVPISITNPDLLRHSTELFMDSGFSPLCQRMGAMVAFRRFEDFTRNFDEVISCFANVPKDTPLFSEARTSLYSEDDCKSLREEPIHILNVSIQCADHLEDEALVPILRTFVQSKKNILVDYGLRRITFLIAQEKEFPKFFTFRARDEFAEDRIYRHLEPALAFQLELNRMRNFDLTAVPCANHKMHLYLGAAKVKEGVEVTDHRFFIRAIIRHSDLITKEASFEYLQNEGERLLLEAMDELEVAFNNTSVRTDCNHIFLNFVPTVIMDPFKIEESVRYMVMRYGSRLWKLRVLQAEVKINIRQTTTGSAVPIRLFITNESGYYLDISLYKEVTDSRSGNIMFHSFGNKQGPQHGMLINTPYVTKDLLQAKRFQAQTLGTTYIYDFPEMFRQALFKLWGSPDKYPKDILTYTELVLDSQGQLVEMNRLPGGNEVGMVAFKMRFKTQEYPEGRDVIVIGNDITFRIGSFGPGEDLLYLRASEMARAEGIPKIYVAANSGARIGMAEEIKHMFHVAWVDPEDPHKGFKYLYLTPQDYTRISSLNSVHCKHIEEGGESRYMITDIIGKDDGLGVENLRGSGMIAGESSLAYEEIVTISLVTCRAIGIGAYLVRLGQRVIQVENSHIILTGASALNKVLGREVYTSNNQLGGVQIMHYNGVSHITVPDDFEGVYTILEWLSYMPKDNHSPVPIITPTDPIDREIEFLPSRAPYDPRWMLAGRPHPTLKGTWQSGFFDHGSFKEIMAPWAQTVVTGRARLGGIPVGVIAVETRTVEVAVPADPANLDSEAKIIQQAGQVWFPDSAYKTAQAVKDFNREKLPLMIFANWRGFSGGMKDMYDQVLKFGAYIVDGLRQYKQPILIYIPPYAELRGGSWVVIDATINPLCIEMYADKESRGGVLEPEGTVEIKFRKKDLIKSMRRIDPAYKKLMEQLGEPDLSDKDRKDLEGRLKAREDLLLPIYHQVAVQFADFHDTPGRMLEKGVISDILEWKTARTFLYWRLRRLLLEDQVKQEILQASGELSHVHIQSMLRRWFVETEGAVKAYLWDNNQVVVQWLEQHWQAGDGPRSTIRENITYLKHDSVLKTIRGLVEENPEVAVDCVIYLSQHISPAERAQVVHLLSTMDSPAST

On to `CC(=O)N[C@@H](C)CO[C@H]1C[C@H](COc2ncnc(/C=C/c3ccccc3)c2C)C1` [Compound I-416], for which the IC50 amounted to 0.09 µM.
Under `CC(=O)N[C@@H](C)CO[C@H]1C[C@H](COc2ncnc(-c3ccc(F)cc3)c2C)C1` [Compound I-417] stands 0.451 µM; under `CC(=O)N[C@@H](C)CO[C@H]1C[C@H](COc2ncnc(-c3ccc(C(F)(F)F)cc3)c2C)C1` [Compound I-418], 0.733 µM; under `CC(=O)N[C@@H](C)CO[C@H]1C[C@H](COc2ncnc(C3=CCCCC3)c2C)C1` [Compound I-419], 0.109 µM.
Under `COc1ccc(-c2ncnc(OC[C@H]3C[C@H](OC[C@H](C)NC(C)=O)C3)c2C)cc1` [Compound I-420] stands 0.447 µM; under `CC(=O)N[C@@H](C)CO[C@H]1C[C@H](COc2ncnc(OCC3CC3)c2C)C1` [Compound I-421], 0.024 µM.
As to `CC(=O)N[C@@H](C)CO[C@H]1C[C@H](COc2nccc(OC3CC(F)(F)C3)c2Cl)C1` [Compound I-422], the IC50 worked out at 0.358 µM.
For `CC(=O)N[C@@H](C)CO[C@H]1C[C@H](COc2nsc3ccccc23)C1` [Compound I-424], the IC50 was determined as 0.122 µM.
Under `CC(=O)N[C@@H](C)CO[C@H]1C[C@H](COc2ncnc3c2c(I)cn3CC2CC2)C1` [Compound I-425] stands 0.17 µM; under `CC(=O)N[C@@H](C)CO[C@H]1C[C@H](COc2ncnc3c2c(C)cn3CC2CC2)C1` [Compound I-426], 0.057 µM.
In the case of `CC(=O)N[C@@H](C)CO[C@H]1C[C@H](COc2ncnc3c2c(C#N)cn3CC2CC2)C1` [Compound I-427], the IC50 is 0.27 µM.
Under `CC(=O)N[C@@H](C)CO[C@H]1C[C@H](COc2nccc3c2cnn3CC2CCC2)C1` [Compound I-428] stands 0.053 µM; under `CC(=O)N[C@@H](C)CO[C@H]1C[C@H](COc2ncnc(COc3ccccc3)c2Cl)C1` [Compound I-429], 0.026 µM.
Under `CC(=O)N[C@@H](C)CO[C@H]1C[C@H](COc2ncnc3c2ccn3Cc2ccccc2)C1` [Compound I-430] stands 0.012 µM.
Regarding `CC(=O)N[C@@H](C)CO[C@H]1C[C@H](COc2ncnc(OCc3ncco3)c2Cl)C1` [Compound I-431], the IC50 stood at 0.809 µM.
With `CC(=O)N[C@@H](C)CO[C@H]1C[C@H](COc2ncnc3c2ccn3Cc2ccccn2)C1` [Compound I-432] the figure was 0.588 µM; with `CC(=O)N[C@@H](C)CO[C@H]1C[C@H](COc2nccc(NC(=O)C3CCCCC3)c2Cl)C1` [Compound I-433], 0.011 µM; with `CC(=O)N[C@@H](C)CO[C@H]1C[C@H](COc2ncnc3c2ccn3Cc2cccnc2)C1` [Compound I-434], 0.653 µM.
With `CC(=O)N[C@@H](C)CO[C@H]1C[C@H](COc2ncnc(OCc3ccccn3)c2Cl)C1` [Compound I-435] the figure was 0.007 µM.
Under `CC(=O)N[C@@H](C)CO[C@H]1C[C@@H](COc2ncnc(OCc3ccccn3)c2Cl)C1` [Compound I-436] stands 0.004 µM.
For the molecule `CC(=O)N[C@@H](C)CO[C@H]1C[C@H](COc2ncnc(OCc3cc(C(F)(F)F)ccn3)c2Cl)C1` [Compound I-437], the IC50 was 0.019 µM.
Under `CC(=O)N[C@@H](C)CO[C@H]1C[C@H](COc2ncnc(OCc3ncc(Cl)s3)c2Cl)C1` [Compound I-439] stands 0.004 µM; under `CC(=O)N[C@@H](C)CO[C@H]1C[C@H](COc2ncnc3c2c(F)cn3CC2CC2(F)F)C1` (some centres unmarked) [Compound I-440], 0.019 µM.
Regarding `CC(=O)N[C@@H](C)CO[C@H]1C[C@H](COc2ncnc(OCc3ncc(F)s3)c2Cl)C1` [Compound I-441], the IC50 was found to be 0.012 µM.
With `CC(=O)N[C@@H](C)CO[C@H]1C[C@H](Oc2nccc3c(OCC4CC4)nccc23)C1` [Compound I-442] the figure was 0.035 µM; with `CC(=O)N[C@@H](C)CO[C@H]1C[C@H](COc2ncnc(OCc3nnc(C(F)(F)F)s3)c2Cl)C1` [Compound I-443], 0.24 µM.
With `CC(=O)N[C@@H](C)CO[C@H]1C[C@H](COc2ncnc3c2ccn3CCC2CC2)C1` [Compound I-444] the figure was 0.051 µM; with `CC(=O)N[C@@H](C)CO[C@H]1C[C@H](Oc2nccc3c(OCc4ccccc4)nccc23)C1` [Compound I-445], 0.014 µM.
With `CC(=O)N[C@@H](C)CO[C@H]1CC[C@H](Oc2ncnc(OCc3ccc(F)cn3)c2Cl)CC1` [Compound I-446] the figure was 0.077 µM; with `CC(=O)N[C@@H](C)CO[C@H]1C[C@H](COc2nc(C)nc3c2ccn3CC2CC2)C1` [Compound I-447], 0.076 µM.
Consider `CC(=O)N[C@@H](C)CO[C@H]1C[C@H](COc2ncnc3c2ccn3-c2ccccc2)C1` [Compound I-448], for which the IC50 is 0.4 µM.
Under `CC(=O)N[C@@H](C)CO[C@H]1C[C@H](COc2ncnc3c2ccn3CC2CCCCC2)C1` [Compound I-449] stands 0.051 µM.
`CC(=O)N[C@@H](C)CO[C@H]1C[C@H](COc2ncnc3c2c(F)cn3CC2CC2)C1` [Compound I-450]: the IC50 amounted to 0.014 µM.
Under `CC(=O)N[C@@H](C)CO[C@H]1C[C@H](COc2ncnc3c2ccn3C2CCCCC2)C1` [Compound I-451] stands 0.04 µM.
On to `CC(=O)N[C@@H](C)CO[C@H]1C[C@H](COc2ncnc(NC(=O)c3ccccc3)c2Cl)C1` [Compound I-452], for which the IC50 was 0.109 µM.
As to `CCn1ccc2c(OC[C@H]3C[C@H](OC[C@H](C)NC(C)=O)C3)ncnc21` [Compound I-453], the IC50 was found to be 0.61 µM.
With `CC(=O)N[C@@H](C)CO[C@H]1C[C@H](COc2ncnc3c2cc(C)n3CC2CC2)C1` [Compound I-454] the figure was 0.087 µM; with `CC(=O)N[C@@H](C)CO[C@H]1CC[C@H](Oc2ncnc(OCc3ncc(Cl)s3)c2Cl)CC1` [Compound I-455], 0.05 µM; with `CC(=O)N[C@@H](C)CO[C@H]1C[C@H](c2nc3cnc(OCc4ccccc4)cc3o2)C1` [Compound I-456], 0.28 µM.
Under `CC(=O)N[C@@H](C)CO[C@]1(C)C[C@@H](COc2ncnc(OCc3ccc(F)cn3)c2Cl)C1` [Compound I-457] stands 0.019 µM; under `CC(=O)N[C@@H](C)CO[C@H]1C[C@H](COc2nccc3c2CCN3CC2CC2)C1` [Compound I-458], 0.032 µM; under `CC(=O)N[C@@H](C)CO[C@H]1C[C@H](COc2ncnc(OCc3ccc(F)cn3)c2F)C1` [Compound I-459], 0.016 µM.
Consider `CC(=O)N[C@@H](C)CO[C@H]1C[C@H](COc2ncnc(OCc3cc(Cl)ccn3)c2F)C1` [Compound I-460], for which the IC50 is 0.004 µM.
Take `CC(=O)N[C@@H](C)CO[C@H]1C[C@H](COc2ncnc(OCc3ccc(F)cc3)c2F)C1` [Compound I-461]: the IC50 amounted to 0.004 µM.
As to `CC(=O)N[C@@H](C)CO[C@H]1C[C@H](COc2ncnc(-c3nc4ccccc4o3)c2Cl)C1` [Compound I-462], the IC50 was found to be 0.09 µM.
As to `CC(=O)N[C@@H](C)CO[C@H]1C[C@H](COc2ncnc(OCC3CCCCO3)c2Cl)C1` (some centres unmarked) [Compound I-463], the IC50 worked out at 0.017 µM.
With `CC(=O)N[C@@H](C)CO[C@H]1C[C@H](COc2ncnc(OCc3cncs3)c2Cl)C1` [Compound I-464] the figure was 0.036 µM; with `CC(=O)N[C@@H](C)CO[C@H]1C[C@H](COc2nccc3c2cnn3CC2CC2(F)F)C1` (some centres unmarked) [Compound I-465], 0.16 µM; with `CC(=O)N[C@@H](C)CO[C@H]1C[C@H](COc2ncnc(OC3(c4ccccc4)CC3)c2Cl)C1` [Compound I-466], 0.179 µM.
Consider `CC(=O)N[C@@H](C)CO[C@H]1C[C@H](COc2ncnc(OCc3ccc(Cl)cn3)c2F)C1` [Compound I-467], for which the IC50 is 0.007 µM.
Under `CC(=O)N[C@@H](C)CO[C@H]1C[C@H](COc2ncnc(NC(=O)C3CCCCC3)c2Cl)C1` [Compound I-468] stands 0.368 µM; under `CC(=O)N[C@@H](C)CO[C@H]1C[C@H](Cn2ccc3c(OCc4ccccc4)ncnc32)C1` [Compound I-469], 0.596 µM.
Under `CC(=O)N[C@@H](C)CO[C@H]1C[C@H](Cn2ccc3c(OCc4cc(Cl)ccn4)ncnc32)C1` [Compound I-470] stands 0.426 µM; under `CC(=O)N[C@@H](C)CO[C@H]1C[C@H](COc2ncnc3c2ccn3C(C)C)C1` [Compound I-471], 0.159 µM; under `CC(=O)N[C@@H](C)CO[C@H]1C[C@H](COc2ncnc3c2ccn3Cc2ccccc2F)C1` [Compound I-472], 0.026 µM.
`CC(=O)N[C@@H](C)CO[C@H]1C[C@H](COc2ncnc3c2ccn3Cc2cccc(F)c2)C1` [Compound I-473]: the IC50 was determined as 0.028 µM.
On to `CC(=O)N[C@@H](C)CO[C@H]1C[C@H](COc2ncnc3c2ccn3Cc2ccc(F)cc2)C1` [Compound I-474], for which the IC50 was found to be 0.016 µM.
With `CC(=O)N[C@@H](C)CO[C@H]1C[C@H](COc2ccc3nc(OC4CC4)n(C)c3n2)C1` [Compound I-475], the IC50 was 0.54 µM.
As for `CC(=O)N[C@@H](C)CO[C@H]1C[C@H](COc2ccc3nc(OCC4CC4)n(C)c3n2)C1` [Compound I-476], the IC50 came out at 0.074 µM.
Turning to `CC(=O)N[C@@H](C)CO[C@H]1C[C@H](COc2ccc3nc(OCC4CC4(F)F)n(C)c3n2)C1` (some centres unmarked) [Compound I-477], the IC50 was 0.247 µM.
With `CC(=O)N[C@@H](C)CO[C@H]1C[C@H](COc2ccc3nc(OC4CC(F)(F)C4)n(C)c3n2)C1` [Compound I-478], the IC50 was determined as 0.116 µM.
Turning to `CCOc1nc2ccc(OC[C@H]3C[C@H](OC[C@H](C)NC(C)=O)C3)nc2n1CC` [Compound I-479], the IC50 came to 0.563 µM.
Under `CC(=O)N[C@@H](C)CO[C@H]1C[C@H](COc2ccc3nc(OCc4ccccc4)n(C)c3n2)C1` [Compound I-480] stands 0.041 µM.
With `CC(=O)N[C@@H](C)CO[C@H]1C[C@H](COc2ccc3nc(Oc4ccccc4)n(C)c3n2)C1` [Compound I-481] the figure was 0.298 µM; with `CC(=O)N[C@@H](C)CO[C@H]1C[C@H](COc2ccc3nc(OCCC(C)C)n(C)c3n2)C1` [Compound I-482], 0.087 µM.
